{
  "source": "paper PMC9951321",
  "key": {"[1]": {"system": "Salmonella Typhimurium ATCC 14028", "test": "MIC, broth micro-dilution", "assay_type": "cell-based", "conditions": "24 h"}, "[2]": {"system": "Enterococcus faecium ATCC 19434", "test": "MIC, broth micro-dilution", "assay_type": "cell-based"}, "[3]": {"system": "Escherichia coli ATCC 8739", "test": "MIC, broth micro-dilution", "assay_type": "cell-based"}, "[4]": {"system": "Staphylococcus aureus MRSA ATCC 43300", "test": "MIC, broth micro-dilution", "assay_type": "cell-based", "conditions": "24 h"}, "[5]": {"system": "Acinetobacter baumannii ATCC 17978", "test": "MIC, broth micro-dilution", "assay_type": "cell-based"}, "[6]": {"system": "Pseudomonas aeruginosa ATCC 10145", "test": "MIC, broth micro-dilution", "assay_type": "cell-based"}, "[7]": {"system": "Staphylococcus aureus ATCC 25923", "test": "MIC, broth micro-dilution", "assay_type": "cell-based"}, "Escherichia coli MDR": {"system": "Escherichia coli MDR", "test": "MIC, broth micro-dilution", "assay_type": "cell-based", "conditions": "for MIC: 24 h; for MIC against E. coli MDR relative to wild-type E. coli strains: fold higher than those of wild-type E. coli strains"}, "[8]": {"system": "Klebsiella pneumoniae ATCC 13883", "test": "MIC, broth micro-dilution", "assay_type": "cell-based"}, "[9]": {"system": "Enterobacter cloacae ATCC 13047", "test": "MIC, broth micro-dilution", "assay_type": "cell-based"}, "E. coli [10]": {"system": "E. coli", "test": "K+ out-diffusion, atomic absorption spectrometry", "conditions": "4 × MIC, 1 h; untreated 13.47 µg mL^−1; n = 3"}, "E. coli [11]": {"system": "E. coli", "test": "PGN integrity assay (susceptibility to lysozyme-mediated lysis)", "conditions": "cells grown with 0.625 µmol L^−1 (1/4 × MIC); 1 mg mL^−1 lysozyme, within 20 min incubation, 25 °C"}},
  "note": "Where a SMILES comes first, the peptide text is derived from it.",
  "data": [
    {"compound": "colistin", "values": [
      {"measurement": "MIC", "setting": "[1]; Salmonella Typhimurium ATCC 14028, broth micro-dilution in MHB, 37 °C, triplicate", "value": 6.4, "unit": "µM"},
      {"measurement": "MIC", "setting": "[2]; Enterococcus faecium ATCC 19434, broth micro-dilution in MHB, 37 °C, 24 h, triplicate", "value": 204.2, "unit": "µM"},
      {"measurement": "MIC", "setting": "[3]; Escherichia coli ATCC 8739, broth micro-dilution in MHB, 37 °C, 24 h, triplicate", "value": 3.2, "unit": "µM"},
      {"measurement": "MIC", "setting": "[4]; Staphylococcus aureus MRSA ATCC 43300, broth micro-dilution in MHB, 37 °C, triplicate", "value": 51.1, "unit": "µM"},
      {"measurement": "MIC", "setting": "[5]; Acinetobacter baumannii ATCC 17978, broth micro-dilution in MHB, 37 °C, 24 h, triplicate", "value": 1.6, "unit": "µM"},
      {"measurement": "MIC", "setting": "[6]; Pseudomonas aeruginosa ATCC 10145, broth micro-dilution in MHB, 37 °C, 24 h, triplicate", "value": 6.4, "unit": "µM"},
      {"measurement": "MIC", "setting": "[7]; Staphylococcus aureus ATCC 25923, broth micro-dilution in MHB, 37 °C, 24 h, triplicate", "value": 12.8, "unit": "µM"},
      {"measurement": "MIC", "setting": "Escherichia coli MDR; Escherichia coli MDR, multi-drug resistant clinical isolate, broth micro-dilution in MHB, 37 °C, triplicate", "value": 102.1, "unit": "µM"},
      {"measurement": "MIC against E. coli MDR relative to wild-type E. coli strains", "setting": "Escherichia coli MDR", "value": "≥ 32", "unit": "fold"},
      {"measurement": "MIC", "setting": "[8]; Klebsiella pneumoniae ATCC 13883, broth micro-dilution in MHB, 37 °C, 24 h, triplicate", "value": 12.8, "unit": "µM"},
      {"measurement": "MIC", "setting": "[9]; Enterobacter cloacae ATCC 13047, broth micro-dilution in MHB, 37 °C, 24 h, triplicate", "value": 204.2, "unit": "µM"}
    ]},
    {"compound": "NC[C@H]1O[C@H](O[C@H]2[C@H](O)[C@@H](O[C@H]3O[C@H](CO)[C@@H](O)[C@H](N)[C@H]3O)[C@H](N)C[C@@H]2N)[C@H](N)C[C@@H]1O", "note": "[Tob, tobramycin]", "values": [
      {"measurement": "MIC", "setting": "[1]; Salmonella enterica", "value": 17.1, "unit": "µM"},
      {"measurement": "MIC", "setting": "[2]; Enterococcus faecium, ATCC19434, 24 h", "value": 274, "unit": "µM"},
      {"measurement": "MIC", "setting": "[3]; Escherichia coli, ATCC8739, 24 h", "value": 4.3, "unit": "µM"},
      {"measurement": "MIC", "setting": "[4]; Staphylococcus aureus", "value": 548, "unit": "µM"},
      {"measurement": "MIC", "setting": "[5]; Acinetobacter baumannii, ATCC17978, 24 h", "value": 2.1, "unit": "µM"},
      {"measurement": "MIC", "setting": "[6]; Pseudomonas aeruginosa, ATCC10145, 24 h", "value": 4.3, "unit": "µM"},
      {"measurement": "MIC", "setting": "[7]; Staphylococcus aureus, ATCC25923, 24 h", "value": 17.1, "unit": "µM"},
      {"measurement": "MIC", "setting": "Escherichia coli MDR; Escherichia coli", "value": 548, "unit": "µM"},
      {"measurement": "MIC against E. coli MDR relative to wild-type E. coli strains", "setting": "Escherichia coli MDR", "value": "at least 128 fold"},
      {"measurement": "MIC", "setting": "[8]; Klebsiella pneumoniae, ATCC13883, 24 h", "value": 2.1, "unit": "µM"},
      {"measurement": "MIC", "setting": "[9]; Enterobacter cloacae, ATCC13047, 24 h", "value": 2.1, "unit": "µM"}
    ]},
    {"compound": "CC[C@H](C)[C@H](NC(=O)[C@@H](N)CCCNC(=N)N)C(=O)N[C@@H](CCCCN)C(=O)N[C@H](C(=O)N[C@@H](CCCNC(=N)N)C(=O)N[C@H](C(=O)N[C@@H](Cc1c[nH]c2ccccc12)C(=O)N[C@@H](CCCNC(=N)N)C(=O)N[C@@H](CC(C)C)C(=O)N[C@@H](C)C(=O)N[C@@H](CC(C)C)C(=O)N[C@@H](CCCNC(=N)N)C(=O)N[C@@H](Cc1c[nH]c2ccccc12)C(=O)N[C@@H](CC(C)C)C(=O)N[C@@H](CCCCN)C(=O)N[C@@H](CC(C)C)C(=O)O)[C@@H](C)O)[C@@H](C)O", "note": "[KTR] (H-RIKTRTWRLALRWLKL-OH)", "values": [
      {"measurement": "Extracellular K^+ content", "setting": "E. coli [10]", "value": 21.53, "unit": "µg/mL"}
    ]},
    {"compound": "CC[C@H](C)[C@H](NC(=O)[C@@H](N)CCCNC(=N)N)C(=O)N[C@@H](CCCCN)C(=O)N[C@H](C(=O)N[C@@H](C)C(=O)N[C@H](C(=O)N[C@@H](Cc1c[nH]c2ccccc12)C(=O)N[C@@H](CCCNC(=N)N)C(=O)N[C@@H](CC(C)C)C(=O)N[C@@H](C)C(=O)N[C@@H](CC(C)C)C(=O)N[C@@H](CCCNC(=N)N)C(=O)N[C@@H](Cc1c[nH]c2ccccc12)C(=O)N[C@@H](CC(C)C)C(=O)N[C@@H](CCCCN)C(=O)N[C@@H](CC(C)C)C(=O)O)[C@@H](C)O)[C@@H](C)O", "note": "[KTA] (H-RIKTATWRLALRWLKL-OH)", "values": [
      {"measurement": "Reduction of OD600 nm of treated cells with lysozyme", "setting": "E. coli [11]", "value": 17.2, "unit": "%"},
      {"measurement": "Extracellular K^+ content", "setting": "E. coli [10]", "value": 18.92, "unit": "µg/mL"}
    ]}
  ]
}
